The source of these data is ChEMBL document CHEMBL1141818, “Annonaceous acetogenins: recent progress” (J Nat Prod, 1999).

For one data set, the system named is A498. As to the kind of experiment: Cytotoxicity against human A-498 cells. To be noted: Homo sapiens, A498; read-out: ED50 (the source's name). The data set is classed as functional.
Another data set relates to A549. The experiment in a line: Cytotoxicity against human A549 cells. The class given is functional. To be noted: for EC50: Homo sapiens, A549, read-out: ED50 (the source's name).
The next data set relates to MIA PaCa-2. As to the kind of experiment: Cytotoxicity against human MIA PaCa2 cells. The class given is functional. To be noted: for EC50: Homo sapiens, MIA PaCa-2, read-out: ED50 (the source's name).
For another data set, the system named is HT-29. As to the kind of experiment: Cytotoxicity against human HT-29 cells. The data set is classed as functional. The settings on record: Homo sapiens, HT-29; read-out: ED50 (the source's name).
The nature of data set [1]: Toxicity in brine shrimp. The data set is classed as organism-based. To be noted: artemia, in vivo.
The next data set deals with PC-3. As to the kind of experiment: Cytotoxicity against human PC-3 cells. The class given is functional. The settings on record: for EC50: Homo sapiens, PC-3, read-out: ED50 (the source's name).
In a further data set the test system is MCF7. As to the kind of experiment: Cytotoxicity against human MCF7 cells. The class given is functional. The settings on record: for EC50: Homo sapiens, MCF7, read-out: ED50 (the source's name).
For data set [2], the system named is Blattella germanica. As to the kind of experiment: Ratio of LT50 for Blattella germanica Muncie second instars to LT50 for Blattella germanica Jwax second instars. The class given is functional.
The subject of data set [3] is Blattella germanica. The experiment in a line: Ratio of LT50 for Blattella germanica Muncie fifth instars to LT50 for Blattella germanica Jwax fifth instars. The data set is classed as functional.

In general, LC50 refers to the concentration that kills 50% of the test population. A higher LC50 goes with lower toxicity.

SMILES strings stand for the structures. In brackets after ≈: the same amount, converted by molar mass.

`CCCCCCCCCCCCCCCC[C@@H](O)[C@H]1CC[C@H]([C@H](O)CC[C@H](O)CCCCC[C@@H](O)CC2=C[C@H](C)OC2=O)O1` [GONIOTETRACIN]: the EC50 came out at 1.5 mg/L (≈ 2.4 µM) in the data set with A498; 0.39 mg/L (≈ 0.624 µM) in the data set with A549; 0.026 mg/L (≈ 0.0416 µM) in the data set with MIA PaCa-2; 1.5 mg/L (≈ 2.4 µM) in the data set with HT-29; 0.021 mg/L (≈ 0.0336 µM) in the data set with PC-3; 1.7 mg/L (≈ 2.72 µM) in the data set on MCF7. The LC50 in data set [1] worked out at 0.2 mg/L (≈ 0.32 µM).
Consider `CCCCCCCCCCCCC(=O)C[C@@H]1C[C@@H](O)[C@@H](CC[C@H](O)[C@@H]2CC[C@@H](CCCCC[C@@H](O)CC3=C[C@H](C)OC3=O)O2)O1` [GONIOTRIOCIN], for which the EC50 was determined as 1.1 mg/L (≈ 1.73 µM) in the data set on A498; 0.033 mg/L (≈ 0.0518 µM) in the data set with A549; 1.4 mg/L (≈ 2.2 µM) in the data set on MIA PaCa-2; 0.0012 mg/L (≈ 0.00188 µM) in the data set on HT-29; 0.26 mg/L (≈ 0.408 µM) in the data set with PC-3. In data set [1], this molecule gave an LC50 of 2.7 mg/L (≈ 4.24 µM). The molecule further yielded an ED50 in the data set with MCF7 of 3.3 ×10⁻⁵ ug/ml.
On to `CC1(C)CNC(=NN=C(/C=C/c2ccc(C(F)(F)F)cc2)/C=C/c2ccc(C(F)(F)F)cc2)NC1` [HYDRAMETHYLNON], for which the Ratio with Blattella germanica [2] is listed as 1; with Blattella germanica [3], 0.6.
Take `CCCCCCCCCC[C@@H]1O[C@H]([C@@H]2CC[C@H]([C@H](O)CCCCCCCCCC[C@@H](O)CC3=C[C@H](C)OC3=O)O2)CC[C@H]1O` [JIMENEZIN]: the EC50 was 0.049 mg/L (≈ 0.0787 µM) in the data set with A498, 0.016 mg/L (≈ 0.0257 µM) in the data set on A549, 0.0043 mg/L (≈ 0.0069 µM) in the data set on HT-29 and greater than 0.1 mg/L with MCF7. Moreover, the ED50 with MIA PaCa-2 was determined as 1.7 ×10⁻⁴ ug/ml; in the data set with PC-3, 2.8 ×10⁻⁴ ug/ml. In data set [1], this molecule displayed an LC50 of 0.0057 mg/L (≈ 0.00915 µM).
`CCCCCCCCCCCCCC[C@H](O)CCCCCCC[C@H](O)CCCCC[C@@H](O)CC1=C[C@H](C)OC1=O` [LONGANIN]: the EC50 with A498 amounted to 0.039 mg/L (≈ 0.0688 µM); in the data set with A549 it was 0.011 mg/L (≈ 0.0194 µM); in the data set on MIA PaCa-2, 0.011 mg/L (≈ 0.0194 µM); in the data set on HT-29, 0.61 mg/L (≈ 1.08 µM); in the data set with PC-3 it was 0.4 mg/L (≈ 0.706 µM); with MCF7, 3.4 mg/L (≈ 6 µM). The LC50 in data set [1] was found to be 12 mg/L (≈ 21.2 µM).
As to `CCCCCCCCCCCC[C@@H](O)[C@H]1CC[C@H]([C@H](O)CCC(O)CCCC(O)CCC[C@@H](O)CC2=C[C@H](C)OC2=O)O1` (stereo not given in full) [MURICAPENTOCIN], the EC50 with A498 was found to be 1.7 mg/L (≈ 2.77 µM); in the data set with A549, 0.19 mg/L (≈ 0.31 µM); with MIA PaCa-2 it was 0.05 mg/L (≈ 0.0816 µM); in the data set with HT-29, 0.071 mg/L (≈ 0.116 µM); in the data set with PC-3, 0.45 mg/L (≈ 0.734 µM); in the data set with MCF7 it was 1.9 mg/L (≈ 3.1 µM). Besides, the LC50 in [1] worked out at 1.8 mg/L (≈ 2.94 µM).
For the molecule `CCCCCCCCCCCC[C@@H](O)[C@@H](O)CC[C@H](O)[C@@H]1CC[C@@H](C[C@@H](O)C[C@@H](O)CCC[C@@H](O)CC2=C[C@H](C)OC2=O)O1` [MURICOREACIN], the EC50 in the data set with A498 came out at 0.71 mg/L (≈ 1.13 µM); with A549 it was 0.0023 mg/L (≈ 0.00366 µM); with MIA PaCa-2, 2.3 mg/L (≈ 3.66 µM); in the data set on HT-29, 0.57 mg/L (≈ 0.906 µM); with PC-3, 0.025 mg/L (≈ 0.0398 µM); with MCF7, 1.3 mg/L (≈ 2.07 µM). In addition, the LC50 in data set [1] was determined as 19 mg/L (≈ 30.2 µM).
Take `CCCCCCCCCCCC[C@@H](O)[C@@H](O)CC[C@H](O)[C@@H]1CC[C@@H](CCC[C@@H](O)[C@H](O)CC[C@@H](O)CC2=C[C@H](C)OC2=O)O1` [MURIHEXOCIN]: the EC50 was determined as 2.5 mg/L (≈ 3.98 µM) with A498; 1.1 mg/L (≈ 1.75 µM) in the data set with A549; 0.49 mg/L (≈ 0.779 µM) in the data set with MIA PaCa-2; 1.3 mg/L (≈ 2.07 µM) in the data set on HT-29; 0.86 mg/L (≈ 1.37 µM) with PC-3; 3.8 mg/L (≈ 6.04 µM) in the data set with MCF7. The molecule also returned an LC50 in data set [1] of 10 mg/L (≈ 15.9 µM).
Regarding `CCCCCCCCCC[C@@H](O)[C@H]1CC[C@H]([C@H]2CC[C@H]([C@H](O)CCCCCCCC[C@@H](O)CC3=C[C@H](C)OC3=O)O2)O1` [PARVIFLORIN], the figures for the Ratio in the data set on Blattella germanica [2] and with Blattella germanica [3] were 0.9 and 1.5, respectively.
For `CNC(=O)Oc1ccccc1OC(C)C` [PROPOXUR] the same measures were 3.8 and 1.7.
With `CCCCCCCCCCCCCC[C@H]1O[C@@H]([C@H](O)CC[C@H](O)CCCCC[C@@H](O)CC2=C[C@H](C)OC2=O)CC[C@H]1O` [PYRAGONICIN], the EC50 in the data set with A498 amounted to 0.13 mg/L (≈ 0.218 µM); with A549 it was 2 mg/L (≈ 3.35 µM); with MIA PaCa-2 it was 0.058 mg/L (≈ 0.0972 µM); with HT-29 it was 2.8 mg/L (≈ 4.69 µM); in the data set on PC-3 it was 0.12 mg/L (≈ 0.201 µM); in the data set with MCF7 it was 1.6 mg/L (≈ 2.68 µM). In data set [1], this molecule came in with an LC50 of 0.9 mg/L (≈ 1.51 µM).
In the case of `CCCCCCCCCCCC[C@H]1O[C@@H]([C@H](O)CCCC[C@H](O)CCCCC[C@@H](O)CC2=C[C@H](C)OC2=O)CC[C@H]1O` [PYRANICIN], the EC50 in the data set with A498 was determined as 0.18 mg/L (≈ 0.302 µM); with A549, 0.28 mg/L (≈ 0.469 µM); with MIA PaCa-2, 0.0013 mg/L (≈ 0.00218 µM); with HT-29, 1.2 mg/L (≈ 2.01 µM); in the data set on PC-3, 0.41 mg/L (≈ 0.687 µM); in the data set with MCF7, 0.39 mg/L (≈ 0.653 µM). Also, the LC50 in [1] came out at 0.3 mg/L (≈ 0.503 µM).
Turning to `CCCCCCCCCCCC[C@@H](O)[C@H]1CCC(C2CCC(CC(O)CCCCC[C@@H](O)CC3=C[C@H](C)OC3=O)O2)O1` (stereo not given in full) [ROLLINACIN], the EC50 with A498 turned out to be 1.6 mg/L (≈ 2.69 µM); with A549, 0.046 mg/L (≈ 0.0773 µM); in the data set on MIA PaCa-2, 2 mg/L (≈ 3.36 µM); in the data set on HT-29 it was 2.1 mg/L (≈ 3.53 µM); in the data set on PC-3, 2.5 mg/L (≈ 4.2 µM); with MCF7, 0.16 mg/L (≈ 0.269 µM). The same molecule registered an LC50 in [1] of 3.5 mg/L (≈ 5.88 µM).
Take `CCCCCCCCCC[C@@H](O)[C@@H]1CC[C@H]([C@H](O)CC[C@H](O)[C@@H]2CC[C@@H](CCCCCCC[C@@H](O)CC3=C[C@H](C)OC3=O)O2)O1` [SYLVATICIN]: the figures for the Ratio in the data set on Blattella germanica [2] and in the data set with Blattella germanica [3] were 1.7 and 3.9, respectively.
Take `CCCCCCCCCC[C@H](O)[C@H]1CC[C@H]([C@H](O)CC[C@H](O)[C@@H]2CC[C@@H](CCCCC[C@@H](O)CC3=C[C@H](C)OC3=O)O2)O1` [TRILOBALICIN]: the EC50 in the data set with A498 amounted to 0.006 mg/L (≈ 0.00982 µM); in the data set with MIA PaCa-2 it was 0.28 mg/L (≈ 0.458 µM); in the data set with HT-29, 2.3 mg/L (≈ 3.77 µM); in the data set on PC-3 it was 0.98 mg/L (≈ 1.6 µM). Also, the ED50 was determined as 5.8 ×10⁻⁸ ug/ml in the data set on A549 and 1.6 ×10⁻⁷ ug/ml with MCF7. This molecule yielded an LC50 in data set [1] of 5.8 mg/L (≈ 9.49 µM).
